Experimental data reported in article PMC3726769 (PLoS ONE, 2013).
Where two headings read alike, the source gives them in different places.

Key:
wild-type α2 I domain [1] = test: Solid-phase binding assay of GST I domain to immobilised triple-helical peptides; design: species or system human; conditions: 1 μg peptide coated per well; 10 μg/ml GST I domain, 2 mM MgCl2; six paired experiments in triplicate (Fig. 2A)
Method: (§1) I domain adhesion was determined colorimetrically using a solid-phase binding assay, modified slightly from our previous studies, [16], [32] and specified below. Wells were coated using 1 μg peptide in 100 μl 0.01 M acetic acid for 1 h at 22°C on Immulon-2 HB 96-well plates (Thermo Life Sciences, Basingstoke, UK), and blocked for 1 h with 200 μl of TBS containing 50 mg/ml bovine serum albumin). Wells were washed four times with 200 μl of the adhesion buffer (TBS with 1 mg/ml bovine serum albumin) before adding 100 μl of adhesion buffer containing 10 μg/ml of recombinant GST I domains in the presence of either 2 mM MgCl2 or EDTA for 1 h at room temperature. Wells were washed five times with 200 μl of adhesion buffer containing MgCl2, before adding 100 μl of adhesion buffer containing Amersham anti-GST-HRP conjugate (RPN1236; GE Healthcare) at 1:10,000 dilution for 1 h at room temperature. After washing, colour was developed using an ImmunoPure TMB Substrate Kit (Pierce) according to the manufacturer’s instructions. Replacing Mg^2+ with EDTA abolished binding (not shown). Data for short peptide binding were compared using 2-way ANOVA to establish the overall effect of the E318W mutation, and using repeated measures 1-way ANOVA for specific comparisons (Prism 5.0 for Mac, GraphPad).

α2 I E318W [2] = assay type: binding, human
Method: as §1

α2 I E318W [3] = assay type: binding, human; remark: listed apart in the source
wild-type α2 I domain [4] = test: Analytical size exclusion chromatography of I domain-collagen peptide complexes; assay type: binding, human
Method: After incubation for 30 min at 4°C, the solutions were injected onto a Superdex 200 10/300 GL column and run at 4°C at a flow rate of 0.5 ml/min in SEC buffer.

α2 I E318W [5] = test: as above; assay type: binding, human
Method: The lyophilised triple-helical peptides (GFOGER, GMOGER, GAOGER) were dissolved in 500 μl of 1 mg/ml stock solutions of either wild-type or E318W α2 I domains. The amount of peptide was chosen so as to yield a greater than 2-fold molar excess of peptide. After incubation for 30 min at 4°C, the solutions were injected onto a Superdex 200 10/300 GL column and run at 4°C at a flow rate of 0.5 ml/min in SEC buffer.

[6] = target: collagen-like triple-helical peptide [GPO]2GFOGER[GPO]3; test: SEC; analytical SEC on Superdex 200 10/300 GL at 4°C, 100 mM Tris-HCl pH 7.5, 150 mM NaCl, 2 mM MgCl2; I domain 1 mg/ml with a greater than 2-fold molar excess of peptide, 30 min at 4°C before injection
[7] = target: T1, collagen-like triple-helical peptide [GPO]2GMOGER[GPO]3 (O denotes hydroxyproline; C-terminal amide); test: as above; conditions: both partners purified
T1 chain: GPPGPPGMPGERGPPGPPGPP

[8] = 1 μg peptide coated per well, 10 μg/ml GST I domain, 2 mM MgCl2, six paired experiments in triplicate (Fig. 2A)
[9] = SEC, Superdex 200, 4°C, peptide in >2-fold molar excess (Fig. 3)
[10] = SEC, Superdex 200, 4°C, peptide in >2-fold molar excess, 1 mg/ml I domain, 30 min incubation at 4°C, 100 mM Tris-HCl pH 7.5, 150 mM NaCl, 2 mM MgCl2
[11] = solid-phase binding, shorter triple-helical peptides, A450, six paired experiments (Fig. 2A), ANOVA p<0.001

GLOGEA
Binding of wild-type α2 I domain to shorter triple-helical Gxx'GEx'' peptides (A450) (wild-type α2 I domain [1]): bound well | Binding of α2 I E318W to shorter triple-helical Gxx'GEx'' peptides (A450) (α2 I E318W [2]): bound well

GFOGER [positive control]
Change in affinity of E318W compared with wild-type, increasing dose of I domain (α2 I E318W [3]; increasing concentrations of I domain on peptide coatings, single-site binding curves, 3 replicates in a single experiment (Fig. 2B)): modest increase in affinity | Binding of wild-type α2 I domain to shorter triple-helical Gxx'GEx'' peptides (A450) (wild-type α2 I domain [1]): bound well | Binding of α2 I E318W to shorter triple-helical Gxx'GEx'' peptides (A450) (α2 I E318W [2]; [8]): bound well

GASGER
Change in binding of α2 I E318W compared with wild-type α2 I domain (α2 I E318W [2]): several-fold increases

[GPO]2GFOGER[GPO]3 [GFOGER peptide, short homotrimeric collagen-like peptide [GPO]2GFOGER[GPO]3 used for SEC and crystallisation]
Reduction in elution volume of wild-type α2 I domain on addition of peptide (wild-type α2 I domain [4]; [9]): 0.6 mL | Complex formation with wild-type α2 I in solution (I domain:peptide stoichiometry) (wild-type α2 I domain [4]; [10]): formed a 1:1 complex | Apparent mass of the wild-type α2 I-peptide complex derived from the calibration of the SEC column (wild-type α2 I domain [4]; Superdex 200, 4°C (Fig. 3)): 31 kDa | Reduction in elution volume of α2 I E318W on addition of peptide (α2 I E318W [5]; [9]): 1.4 mL | Complex formation with α2 I E318W in solution (I domain:peptide stoichiometry) (α2 I E318W [5]; [10]): appeared to form a 2:1 complex | Apparent mass of the α2 I E318W-peptide complex from calibration of the SEC column (α2 I E318W [5]; Superdex 200, 4°C (Fig. 3), calculated mass 56.1 kDa): 44 kDa

His-tagged integrin α2 I domain E318W (for SEC and crystallisation) (from UniProt P17301 171-368) (domain or fragment)
stoichiometry N (I domains per triple-helical peptide) [6]: 2

GMOGER
Change in affinity of E318W compared with wild-type, increasing dose of I domain (α2 I E318W [3]): substantially greater increase in affinity | Change in binding of α2 I E318W compared with wild-type α2 I domain (α2 I E318W [2]): doubling in amplitude | Change in binding of α2 I E318W compared with wild-type α2 I domain (α2 I E318W [2]; [11]): substantial increase

GROGER
Binding of wild-type α2 I domain to shorter triple-helical Gxx'GEx'' peptides (A450) (wild-type α2 I domain [1]): bound well | Binding of α2 I E318W to shorter triple-helical Gxx'GEx'' peptides (A450) (α2 I E318W [2]): bound well

GLOGEN
Binding of wild-type α2 I domain to shorter triple-helical Gxx'GEx'' peptides (A450) (wild-type α2 I domain [1]): bound well | Binding of α2 I E318W to shorter triple-helical Gxx'GEx'' peptides (A450) (α2 I E318W [2]; [8]): bound well

GFPGER
Binding of wild-type α2 I domain to shorter triple-helical Gxx'GEx'' peptides (A450) (wild-type α2 I domain [1]): bound well | Binding of α2 I E318W to shorter triple-helical Gxx'GEx'' peptides (A450) (α2 I E318W [2]): bound well | Change in binding of α2 I E318W compared with wild-type α2 I domain (α2 I E318W [2]; [11]): equally well

GQRGER
Change in binding of α2 I E318W compared with wild-type α2 I domain (α2 I E318W [2]): several-fold increases

GLKGEN
Change in binding of α2 I E318W compared with wild-type α2 I domain (α2 I E318W [2]): several-fold increases

GLOGER
Binding of wild-type α2 I domain to shorter triple-helical Gxx'GEx'' peptides (A450) (wild-type α2 I domain [1]): bound well | Binding of α2 I E318W to shorter triple-helical Gxx'GEx'' peptides (A450) (α2 I E318W [2]; [8]): bound well

GAOGER
Change in affinity of E318W compared with wild-type, increasing dose of I domain (α2 I E318W [3]): substantially greater increase in affinity

wild-type integrin α2 I domain used in analytical SEC (domain or fragment)
stoichiometry N (I domain per triple-helical peptide) [6]: 1

GFOGEK
Binding of wild-type α2 I domain to shorter triple-helical Gxx'GEx'' peptides (A450) (wild-type α2 I domain [1]): bound well | Binding of α2 I E318W to shorter triple-helical Gxx'GEx'' peptides (A450) (α2 I E318W [2]): bound well

GVOGEA [shorter triple-helical peptide with the α1β1-specific motif GVOGEA]
Binding of wild-type α2 I domain to shorter triple-helical Gxx'GEx'' peptides (A450) (wild-type α2 I domain [1]): not recognised | Binding of α2 I E318W to shorter triple-helical Gxx'GEx'' peptides (A450) (α2 I E318W [2]; [8]): not recognised

B1: His-tagged integrin α2 I domain E318W (for SEC and crystallisation) (domain or fragment, human)
chain: SLIDVVVVCDESNSIYPWDAVKNFLEKFVQGLDIGPTKTQVGLIQYANNPRVVFNLNTYKTKEEMIVATSQTSQYGGDLTNTFGAIQYARKYAYSAASGGRRSATKVMVVVTDGESHDGSMLKAVIDQCNHDNILRFGIAVLGYLNRNALDTKNLIKEIKAIASIPTERYFFNVSDWAALLEKAGTLGEQIFSIEGTV
notes: also called α2 I E318W; E318W I domain; source: E. coli Origami, purified (HisTrap FF, SEC on Superdex 75)
stoichiometry N [7]: 1 I domain per triple-helical peptide
